From US8497278B2, “Imidazo[1,2-a]pyridine compounds” (priority 2008, dated 2013)

How the values were obtained:
[1] = biological target: T1, α2 subtype containing GABA-A receptors (Homo sapiens, UniProt P18507+P47869); assay: Two-electrode voltage clamp electrophysiology in Xenopus oocytes, potentiation of GABA EC20 response, α2; assay type: cell-based; conditions: 100 nM compound; for activation at 0.1 µM: read-out: Percentage of potentiation alpha2
T1 construct: expressed in transfected cells; host or cells: Xenopus laevis oocytes, cRNA injected
In short: (§1)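 Xenopus oocytes expressing human α1, α2, α3 or α5 with β3 and γ2L subunits were voltage-clamped at −80 mV in ND96, pH 7.5. Potentiation of the GABA EC20 (60 μM) response by test compounds at 100 nM was measured, with one compound per oocyte. Oocytes showing low current or poor γ2L incorporation, judged by 1 μM chlordiazepoxide response, were excluded.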

[2] = biological target: T2, α5 subtype containing GABA-A receptors (Homo sapiens, UniProt P18507+P31644); assay: Two-electrode voltage clamp electrophysiology in Xenopus oocytes, potentiation of GABA EC20 response, α5; assay type: cell-based; conditions: 100 nM compound; for activation at 0.1 µM: read-out: Percentage of potentiation alpha5
T2 construct: expressed in transfected cells; host or cells: Xenopus laevis oocytes, cRNA injected
Description: (§2) Electrophysiology protocol: Oocytes were prepared from adult female Xenopus laevis frogs. cRNA encoding human α1, α2, α3, α5, β3 and γ2L GABAA receptor subunits was injected into the cytoplasm of stage 5 or 6 oocytes using the Robocyte Robot (Multi Channel Systems, Reutlingen, Germany). Two-electrode voltage clamp recordings were made in 96-well plates using the Robocyte Robot. Oocytes were impaled using recording heads with two glass electrodes containing 1.5 M potassium acetate and 0.5 M KCl and held at a membrane potential of −80 mV. Oocytes were continually perfused with a ND96 solution (96 mM NaCl, 2 mM KCl, 0.1 mM CaCl2, and 5 mM HEPES, pH 7.5) using a Gilson 222 XL Liquid Handler and Gilson Minipuls 3 Peristaltic Pump (Gilson Medical Electronics, Middleton, Wis., USA). The protocol consisted of three 20-s applications of GABA that gave a 20% of the maximum response (EC20: 60 μM) to allow for headroom to determine a baseline GABA response. To assess the potentiation, oocytes were first exposed to a single 1 μM chlordiazepoxide (CDP) as a potentiation standard. Oocytes with insufficient expression levels (currents below threshold) or insufficient γ2L subunit incorporation (judged by rapid desensitization upon GABA application, or by insufficient potentiation by CDP) were not included in analysis. Following this control application, a given oocyte was exposed to test compounds at 100 nM concentrations. Only one concentration of one compound was tested per oocyte. […] One skilled in the art will recognize that subtypes contribute to the effects of GABA-A modulators. Such that compounds favoring different subtypes can have different therapeutic effects. The magnitude of modulation, for example, partial modulators can influence the effects in vivo. “++” indicates a greater modulation that “+” so that at any given subtype “++” inducates a greater amount of modulation for that subtype. In some embodiments, modulation favoring alpha 1 relative to alpha2 and/or alpha 3 can have sedative hypnotic effects. In other embodiments, compounds with reduced selectivity of alpha 1 can express anxiolytic effects with less sedation. Compounds with selectivity for alpha 5 can have memory/cognition enhancing effects.

[3] = biological target: T3, α1 subtype containing GABA-A receptors (Homo sapiens, UniProt P14867+P18507); assay: Two-electrode voltage clamp electrophysiology in Xenopus oocytes, potentiation of GABA EC20 response, α1; assay type: cell-based; conditions: 100 nM compound; for activation at 0.1 µM: read-out: Percentage of potentiation alpha1
T3 construct: expressed in transfected cells; host or cells: Xenopus laevis oocytes, cRNA injected
In short: as §1

[4] = tested on: central benzodiazepine receptors; assay: Central benzodiazepine receptor binding (test of Speth et al.); conditions: 1000 nM of the compound
In short: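 Radioligand binding by the Speth et al. method. Specific binding is total minus nonspecific binding, the latter measured with excess unlabelled ligand. Compounds screened at 1.0E-09, 1.0E-07 and 1.0E-05 M in single determination; values given as percent inhibition at 1000 nM compound.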

[5] = biological target: T4, α3 subtype containing GABA-A receptors (Homo sapiens, UniProt P18507+P34903); assay: Two-electrode voltage clamp electrophysiology in Xenopus oocytes, potentiation of GABA EC20 response, α3; assay type: cell-based; conditions: 100 nM compound; for activation at 0.1 µM: read-out: Percentage of potentiation alpha3
T4 construct: expressed in transfected cells; host or cells: Xenopus laevis oocytes, cRNA injected
Description: as §2

Swiss Webster (CFW) mice = assay: Four Plate Test (FPT); assay type: in vivo; conditions: mouse, 30 min before test, 2 min session
From the text: Four Plate Test (FPT) Protocol: The four plate test (FPT) is an animal model of anxiety in which simple ongoing behavior (exploration of novel surroundings) is suppressed by the delivery of mild electric foot-shock contingent to quadrant crossing (Aron, et al., 1971). Clinically effective classes of anxiolytic compounds such as benzodiazepines, selective serotonin reuptake inhibitors, or 5-HT1A receptor agonists produce a marked anti-punishment effect (an increase in punished crossings), which is thought to indicate anxiolytic activity (Aron, et al., 1971; Bourin, et al., 1992; Hascoet, et al., 2000; Ring, et al., 2006). The four plate apparatus (Bioseb, Chaville France) consists of a cage (18×25×16 cm) floored by four identical rectangular metal plates (8×11 cm) separated from one another by a gap of 4 mm. The plates are connected to a shocker unit that can generate electric foot shocks.
Male Swiss Webster (CFW) mice from Charles River (Wilmington, Mass.) were used for the FPT. Mice were received at 3-weeks of age. Upon receipt, mice were assigned unique identification numbers (tail marked) and were group housed with 4 mice per cage in mouse ventilated racks. All animals remained housed in groups of four during the remainder of the study. All mice were acclimated to the colony room for at least one week prior to testing and were subsequently tested at an average age of 4 weeks of age. During the period of acclimation, mice […] were examined on a regular basis, handled, and weighed to assure adequate healtH, D and suitability. Animals were maintained on a 12/12 light/dark cycle. The room temperature was maintained between 20 and 23° C. with a relative humidity maintained between 30% and 70%. Chow and water were provided ad libitum for the duration of the study. In each test, animals were randomly assigned across treatment groups. Alprazolam (0.3 mg/kg) was used as the positive control. Compounds of the present invention, vehicle (45% hydroxypropyl beta-cyclodextrin) and alprazolam were administered orally to all groups (n=10 mice per group) 30 minutes prior to behavioral testing. Following pretreatment, mice were gently placed in the four plate chamber and allowed to explore the enclosure for 18 seconds. After the exploration period, every time the mouse crossed from one plate to another, the experimenter, blind to the dosing conditions, administered a mild electric foot-shock, and referred to as a punished crossing. The intensity and duration of the foot-shock were 0.5 mA for 0.5 seconds. The number of punished crossings was recorded during the 2 min test session. The plates were thoroughly cleaned with 70% ethanol immediately after each mouse. All data were analyzed using an analysis of variance (ANOVA) followed by Fisher's PLSD post hoc test. An effect was considered significance if p<0.05. Statistical outliers above or below 2 standard deviations from the mean in any of the […] were removed from the final analysis.

T4 sequence (P34903 29-492): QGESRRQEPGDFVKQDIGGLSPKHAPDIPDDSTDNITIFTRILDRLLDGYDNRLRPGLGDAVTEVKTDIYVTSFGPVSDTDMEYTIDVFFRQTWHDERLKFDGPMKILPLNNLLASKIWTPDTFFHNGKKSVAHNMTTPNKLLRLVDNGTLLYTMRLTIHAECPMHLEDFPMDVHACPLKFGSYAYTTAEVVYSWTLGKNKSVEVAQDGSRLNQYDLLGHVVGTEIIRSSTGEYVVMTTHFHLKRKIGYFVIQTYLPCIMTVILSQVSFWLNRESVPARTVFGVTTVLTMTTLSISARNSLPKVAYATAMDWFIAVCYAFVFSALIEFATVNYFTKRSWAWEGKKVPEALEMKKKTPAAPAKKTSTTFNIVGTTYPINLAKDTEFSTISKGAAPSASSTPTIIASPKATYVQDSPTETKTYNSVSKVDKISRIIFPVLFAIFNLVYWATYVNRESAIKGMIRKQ
T4 sequence (P28472 26-473 partner): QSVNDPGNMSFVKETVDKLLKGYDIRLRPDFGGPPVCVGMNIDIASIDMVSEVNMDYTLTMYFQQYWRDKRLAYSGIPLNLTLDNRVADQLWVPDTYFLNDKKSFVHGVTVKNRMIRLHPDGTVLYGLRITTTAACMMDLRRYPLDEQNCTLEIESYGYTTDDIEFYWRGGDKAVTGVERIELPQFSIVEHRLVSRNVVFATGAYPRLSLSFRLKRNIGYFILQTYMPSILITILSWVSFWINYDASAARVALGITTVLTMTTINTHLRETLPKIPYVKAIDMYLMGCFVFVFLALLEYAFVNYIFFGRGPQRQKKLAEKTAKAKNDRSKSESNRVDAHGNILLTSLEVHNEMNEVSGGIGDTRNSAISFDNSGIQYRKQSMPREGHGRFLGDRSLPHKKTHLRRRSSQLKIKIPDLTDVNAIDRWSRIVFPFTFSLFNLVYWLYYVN
T4 sequence (P18507 40-475): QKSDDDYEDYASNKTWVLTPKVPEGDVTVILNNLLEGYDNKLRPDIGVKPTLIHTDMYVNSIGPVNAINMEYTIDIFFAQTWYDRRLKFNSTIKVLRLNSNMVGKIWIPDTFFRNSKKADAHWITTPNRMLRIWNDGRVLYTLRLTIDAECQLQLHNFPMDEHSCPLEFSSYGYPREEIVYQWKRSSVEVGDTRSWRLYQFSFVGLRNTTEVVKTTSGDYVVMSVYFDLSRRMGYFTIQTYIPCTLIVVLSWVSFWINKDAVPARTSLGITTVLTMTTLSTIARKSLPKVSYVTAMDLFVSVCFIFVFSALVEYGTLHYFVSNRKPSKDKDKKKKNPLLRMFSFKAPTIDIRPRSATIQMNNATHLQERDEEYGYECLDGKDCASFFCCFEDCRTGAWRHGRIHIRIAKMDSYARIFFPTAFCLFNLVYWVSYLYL
T1 sequence (P47869 29-451): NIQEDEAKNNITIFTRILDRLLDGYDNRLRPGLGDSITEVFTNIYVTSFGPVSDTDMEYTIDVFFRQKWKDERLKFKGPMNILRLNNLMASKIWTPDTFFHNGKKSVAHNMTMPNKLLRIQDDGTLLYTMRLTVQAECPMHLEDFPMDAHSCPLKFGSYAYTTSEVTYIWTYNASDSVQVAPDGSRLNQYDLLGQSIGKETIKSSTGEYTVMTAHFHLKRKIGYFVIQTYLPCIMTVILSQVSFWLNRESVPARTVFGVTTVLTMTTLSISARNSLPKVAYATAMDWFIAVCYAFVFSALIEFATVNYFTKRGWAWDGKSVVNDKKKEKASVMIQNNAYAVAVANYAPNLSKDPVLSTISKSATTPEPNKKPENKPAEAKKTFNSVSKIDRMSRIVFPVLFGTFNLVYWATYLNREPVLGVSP
T1 sequence (P28472 26-473 partner): as the sequence (P28472 26-473 partner) above
T1 sequence (P18507 40-475): as the sequence (P18507 40-475) above
T2 sequence (P31644 32-462): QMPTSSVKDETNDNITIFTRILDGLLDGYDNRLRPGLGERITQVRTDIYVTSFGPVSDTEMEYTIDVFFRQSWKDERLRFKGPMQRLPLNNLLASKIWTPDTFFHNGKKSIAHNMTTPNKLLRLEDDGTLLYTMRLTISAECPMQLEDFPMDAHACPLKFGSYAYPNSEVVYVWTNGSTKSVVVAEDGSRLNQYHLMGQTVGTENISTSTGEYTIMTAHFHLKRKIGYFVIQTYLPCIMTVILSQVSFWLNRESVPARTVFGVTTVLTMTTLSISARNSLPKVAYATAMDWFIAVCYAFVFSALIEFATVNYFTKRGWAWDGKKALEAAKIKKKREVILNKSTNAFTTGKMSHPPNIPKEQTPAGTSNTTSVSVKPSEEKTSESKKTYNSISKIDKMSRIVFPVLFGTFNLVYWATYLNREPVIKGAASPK
T2 sequence (P28472 26-473 partner): as the sequence (P28472 26-473 partner) above
T2 sequence (P18507 40-475): as the sequence (P18507 40-475) above
T3 sequence (P14867 28-456): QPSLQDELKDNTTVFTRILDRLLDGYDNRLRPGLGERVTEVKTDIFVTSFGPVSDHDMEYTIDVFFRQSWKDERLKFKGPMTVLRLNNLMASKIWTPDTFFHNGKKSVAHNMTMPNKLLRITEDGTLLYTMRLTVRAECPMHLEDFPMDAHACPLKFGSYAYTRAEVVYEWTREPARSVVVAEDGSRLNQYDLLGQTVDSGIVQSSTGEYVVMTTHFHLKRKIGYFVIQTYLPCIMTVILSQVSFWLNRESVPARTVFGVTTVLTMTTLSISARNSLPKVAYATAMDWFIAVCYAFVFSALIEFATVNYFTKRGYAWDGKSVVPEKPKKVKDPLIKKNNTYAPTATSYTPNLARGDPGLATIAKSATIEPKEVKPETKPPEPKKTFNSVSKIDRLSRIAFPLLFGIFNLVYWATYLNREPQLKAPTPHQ
T3 sequence (P28472 26-473 partner): as the sequence (P28472 26-473 partner) above
T3 sequence (P18507 40-475): as the sequence (P18507 40-475) above

SMILES | activation at 0.1 µM [1] | activation at 0.1 µM [2] | activation at 0.1 µM [3] | % Inhibition at 1000 nM for CBZD [4] | activation at 0.1 µM [5] | Percentage of potentiation alpha2 [1] | Number of Punished Crossings Mean ± S.E.M. (Swiss Webster (CFW) mice; 3 mg/kg PO) | Number of Punished Crossings Mean ± S.E.M. (Swiss Webster (CFW) mice; 10 mg/kg PO) | Number of Punished Crossings Mean ± S.E.M. (Swiss Webster (CFW) mice; 30 mg/kg PO) | Percentage of potentiation alpha1 [3] | Percentage of potentiation alpha3 [5] | Percentage of potentiation alpha5 [2]
Cc1ccc(-c2nc3ccc(C)cn3c2CNc2ncccn2)cc1 [Compound 139, N-((6-methyl-2-p-tolylH-imidazo[1,2-a]pyridin-3-yl)methyl)pyrimidin-2-amine] | 10 to 50% | -10 to 10% | 10 to 50% | ++ (percentage of inhibition of central BZD site binding is greater than 80% in the presence of 1000 nM of the compound) | -10 to 10% | – | – | – | – | – | – | –
Fc1ccc(-c2nc3ccc(F)cn3c2Cn2nccn2)cc1 [Compound 60, 3-((2H-1,2,3-triazol-2-yl)methyl)-6-fluoro-2-(4-fluorophenyl)H-imidazo[1,2-a]pyridine] | – | – | – | ++ (percentage of inhibition of central BZD site binding is greater than 80% in the presence of 1000 nM of the compound) | – | + (percentage of potentiation is greater than or equal to 10% but less than 50% in the presence of 100 nM of the compound) | 6.3 ± 0.45 | 6.3 ± 0.70 | 6.0 ± 0.30 | 0 (percentage of potentiation is between about 10% to about −10%) | – | –
NNC(=O)c1nc(Cc2c(-c3ccc(Cl)cc3)nc3ccc(F)cn23)no1 [Compound 216, 3-((2-(4-chlorophenyl)-6-fluoroimidazo[1,2-a]pyridin-3-yl)methyl)-1,2,4-oxadiazole-5-carbohydrazide] | ≥ 50% | -10 to 10% | 10 to 50% | – | 10 to 50% | – | – | – | – | – | – | –
Fc1ccc(-c2nc3ccc(F)cn3c2Cn2ccnn2)cc1 [Compound 61, 3-((1H-1,2,3-triazol-1-yl)methyl)-6-fluoro-2-(4-fluorophenyl)H-imidazo[1,2-a]pyridine] | – | – | – | ++ (percentage of inhibition of central BZD site binding is greater than 80% in the presence of 1000 nM of the compound) | – | + (percentage of potentiation is greater than or equal to 10% but less than 50% in the presence of 100 nM of the compound) | – | – | – | + (percentage of potentiation is greater than or equal to 10% but less than 50% in the presence of 100 nM of the compound) | ++ (percentage of potentiation is greater than or equal to 50% in the presence of 100 nM of the compound) | –
COC1=CC(=O)N(Cc2c(-c3ccc(Cl)cc3)nc3ccc(Cl)cn23)C1 [Compound 114, 1-((6-chloro-2-(4-chlorophenyl)H-imidazo[1,2-a]pyridin-3-yl)methyl)-4-methoxy-1H-pyrrol-2(5H)-one] | – | – | – | – | – | + (percentage of potentiation is greater than or equal to 10% but less than 50% in the presence of 100 nM of the compound) | – | – | – | ++ (percentage of potentiation is greater than or equal to 50% in the presence of 100 nM of the compound) | + (percentage of potentiation is greater than or equal to 10% but less than 50% in the presence of 100 nM of the compound) | 0 (percentage of potentiation is between about 10% to about −10%)
CN1CC[C@@H](Oc2ccnc(NCc3c(-c4ccc(F)cc4)nc4ccc(Cl)cn34)n2)C1 [Compound 183, (R)—N-((6-chloro-2-(4-fluorophenyl)imidazo[1,2-a]pyridin-3-yl)methyl)-4-(1-methylpyrrolidin-3-yloxy)pyrimidin-2-amine] | ≥ 50% | – | ≥ 50% | ++ (percentage of inhibition of central BZD site binding is greater than 80% in the presence of 1000 nM of the compound) | -10 to 10% | – | – | – | – | – | – | –
CN(C)CCNC1=CC(=O)N(Cc2c(-c3ccc(Br)cc3)nc3ccccn23)C1 [Compound 242, 1-((2-(4-bromophenyl)imidazo[1,2-a]pyridin-3-yl)methyl)-4-(2-(dimethylamino)ethylamino)-1H-pyrrol-2(5H)-one] | 10 to 50% | – | 10 to 50% | ++ (percentage of inhibition of central BZD site binding is greater than 80% in the presence of 1000 nM of the compound) | -10 to 10% | – | – | – | – | – | – | –
NC(=O)c1nccn1Cc1c(-c2ccc(Cl)cc2)nc2ccccn12 [Compound 76, 1-((2-(4-chlorophenyl)H-imidazo[1,2-a]pyridin-3-yl)methyl)-1H-imidazole-2-carboxamide] | – | – | – | ++ (percentage of inhibition of central BZD site binding is greater than 80% in the presence of 1000 nM of the compound) | – | + (percentage of potentiation is greater than or equal to 10% but less than 50% in the presence of 100 nM of the compound) | 6.7 ± 0.45 | 6.9 ± 0.35 | 6.3 ± 0.62 | 0 (percentage of potentiation is between about 10% to about −10%) | – | –
CNC(=O)c1nc(Cc2c(-c3ccc(F)cc3)nc3ccc(F)cn23)no1 [Compound 220, 3-((2-(4-fluorophenyl)-6-fluoroimidazo[1,2-a]pyridin-3-yl)methyl)-1,2,4-oxadiazole-5-N-methyl-carboxamide] | – | – | – | – | – | + (percentage of potentiation is greater than or equal to 10% but less than 50% in the presence of 100 nM of the compound) | – | – | – | 0 (percentage of potentiation is between about 10% to about −10%) | 0 (percentage of potentiation is between about 10% to about −10%) | 0 (percentage of potentiation is between about 10% to about −10%)
